Here are results for 6 molecules from patent US7928096B2, “Polydiazeniumdiolated cyclic polyamines with polyphasic nitric oxide release and related compounds, compositions comprising same and methods of using same” (The United States of America, as represented by the …, priority 2002, dated 2011).

Read-outs that look alike come from different tables or passages of the source.

Data set [1] is described as follows: Total moles of NO released by chemiluminescence. It counts as physicochemical. The settings on record: for Moles of NO released: chemiluminescence; for Ideal moles of NO released: theoretical (ideal) amount. On the procedure:
(§1) The total moles of NO released were determined by chemiluminescence as previously described in Hrabie et al. (New Nitric Oxide Releasing Zwitterions Derived from Polyamines. J. Org. Chem., 1993, 58, 1472-1476). The NO release rates for the compounds prepared in Example 1 and Example 2 were determined by UV spectrophotometry by adding a stock solution of the compound in 0.01 M NaOH to pH 7.4 phosphate buffer (0.1 M) contained in a standard UV cell to generate final solutions at concentrations in the range of 50 to 100 μM. The rate of NO release was determined by the decrease in 250-252 nm absorbance over time at 37° C. as previously described by Keefer et al. (“NONOates” (1-Substituted Diazen-1-ium-1,2-diolates) as Nitric Oxide Donors: Convenient Nitric Oxide Dosage Forms. Methods in Enzymology, 1996, 268, 281-293). The results of the NO release of piperazine bisdiazeniumdiolate as discussed in Hrabie et al. (Organic Preparations and Procedures International, 1999, 31(2), 189-192) are included as a comparative example.

The nature of data set [2]: NO release rate by UV spectrophotometry (decrease in 250-252 nm absorbance). In kind it is physicochemical. The settings on record: phosphate buffer, pH 7.4, pH 7.4 phosphate buffer (0.1 M), 37° C., 50 to 100 μM.
Excerpt: The invention provides a cyclic polyamine compound comprising at least three amino groups, wherein at least two of the amino groups are covalently bound to a nitrogen oxide-releasing group of the formula N2O2M, in which M is a pharmaceutically acceptable cation. The invention also provides a compound that has a polyphasic release of nitric oxide, wherein any subsequent release of nitric oxide has a rate that is at least about 3 times smaller than an initial rate of nitric oxide release. The rate of NO release can be determined by any suitable method. For example, the rate of NO release can be measured by the decrease in 250-252 nm absorbance over time at 37° C. as previously described by Keefer et al., “NONOates” (1-Substituted Diazen-1-ium-1,2-diolates) as Nitric Oxide Donors: Convenient Nitric Oxide Dosage Forms. Methods in Enzymology, 1996, 268, 281-293.
as §1

Data set [3] is described as follows: NO release monitored by chemiluminescence of effluent gas stream treated with ozone. Particulars: pH 7.4 phosphate buffer at 37° C.
Method: The diazeniumdiolated compound described in Example 4 was dissolved in pH 7.4 phosphate buffer at 37° C., and the release of NO was monitored by detection of the chemiluminescence generated by treatment of the effluent gas steam with ozone.
The diazeniumdiolated compound described in Example 5 was dissolved in pH 7.4 phosphate buffer at 37° C., and the release of NO was monitored by detection of the chemiluminescence generated by treatment of the effluent gas steam with ozone.
The diazeniumdiolated compound described in Example 6 was dissolved in pH 7.4 phosphate buffer at 37° C., and the release of NO was monitored by detection of the chemiluminescence generated by treatment of the effluent gas steam with ozone.
The diazeniumdiolated compound described in Example 7 was dissolved in pH 7.4 phosphate buffer at 37° C., and the release of NO was monitored by detection of the chemiluminescence generated by treatment of the effluent gas steam with ozone.
The diazeniumdiolated compound described in Example 9 was dissolved in pH 7.4 phosphate buffer at 37° C., and the release of NO was monitored by detection of the chemiluminescence generated by treatment of the effluent gas steam with ozone.
For data set [4] the following is noted: comparative example from Hrabie et al. 1999; cited from earlier work.
Where [5] appears, read: read-out: t1/2 of initial phase.
Where [6] appears, read: read-out: t1/2 of second phase (converted).

As to `[Na+].[Na+].[O-]/N=[N+](\[O-])N1CCCN(/[N+]([O-])=N/[O-])CCNCCCNCC1` [Example 1, 1,4,8,11-tetraazacyclotetradecane-1,11-bisdiazeniumdiolate], the melting point fell in the range of 181 to 182 °C. Also, in data set [1], the “Moles of NO released” value amounted to 3.3 mol and the “Ideal moles of NO released” value was 4 mol. The half-life in data set [2] (setting [5]) stood at 0.0283 h. Moreover, in data set [2] (setting [6]), the half-life is 8.9 h.

For the molecule `[Na+].[Na+].[O-]/N=[N+](\[O-])N1CCNCCNCCN(/[N+]([O-])=N/[O-])CC1` [Example 2, 1,4,7,10-tetraazacyclododecane-1,4-bisdiazeniumdiolate], the melting point is 183 to 185 °C (dec.). Further, in data set [1], the “Moles of NO released” value stood at 3.3 mol and the “Ideal moles of NO released” value was 4 mol. Moreover, the half-life in data set [2] (setting [5]) was found to be 0.0283 h. The half-life in data set [2] (setting [6]) is 8.8 h.

Consider `O=NN([O-])N1CCN2CCN(CCN(N([O-])N=O)CC1)C(=O)C2=O.[Na+].[Na+]` [Example 6, 1,4-bis(diazeniumdiolated)-1,4,7,10-tetraazabicyclo[8.2.2]tetradecane-11,12-dione, disodium salt], for which, in data set [3], the “biphasic release of NO, first rate of release” value stood at 1.0 min and the “biphasic release of NO, second rate of release” value is 41.5 min.

Regarding `CCOC(=O)N1CCN(/[N+]([O-])=N/[O-])CCN(C(=O)OCC)CCN(/[N+]([O-])=N/[O-])CC1.[Na+].[Na+]` [Example 7, 1,7-diazeniumdiolated-4,10-bis(ethoxycarbonyl)-1,4,7,10-tetraazacyclododecane, disodium salt], in data set [3], the “biphasic release of NO, first rate of release” value is listed as 0.36 min and the “biphasic release of NO, second rate of release” value worked out at 60.9 min.

With `O=C1C(=O)N2CCCN([N+]([O-])=N[O-])CCN([N+]([O-])=N[O-])CCCN1CC2.[Na+].[Na+]` [Example 9, 1,4-bis(diazeniumdiolated)-1,5,8,12-tetraazabicyclo[10.2.2.]hexadecane-13,14-dione, disodium salt], in data set [3], the “biphasic release of NO, first rate of release” value stood at 1.1 min and the “biphasic release of NO, second rate of release” value was 161 min.

For “piperazine bisdiazeniumdiolate [reference compound]”, the “Moles of NO released” value in data set [4] was 4.3 mol. Besides, the “Ideal moles of NO released” value in data set [1] amounted to 4 mol.
